What was measured:
[1] = Liquid; for vapor or sublimation pressure: Ebulliometric method (Recirculating still); for mass density: 101.33 kPa, Vibrating tube method
[2] = Boiling temperature at pressure P; settings: Liquid, Ebulliometric method (Recirculating still)
[3] = refractive index (Na D-line) (dimensionless); settings: 101.33 kPa, Liquid, Standard Abbe refractometry

CC=O [ethanal]
Settings | Boiling temperature at pressure P [°C] | refractive index | vapor or sublimation pressure [kPa]
[1], 293.52 K | – | – | 100
[1], 304.31 K | – | – | 150
[1], 312.98 K | – | – | 200
[2], 100.68 kPa | 20.37 | – | –
[2], 105.38 kPa | 21.58 | – | –
[2], 115.48 kPa | 23.93 | – | –
[2], 135.54 kPa | 28.19 | – | –
[2], 150.37 kPa | 31.16 | – | –
[2], 165.44 kPa | 33.89 | – | –
[2], 180.92 kPa | 36.44 | – | –
[2], 195.74 kPa | 39 | – | –
[2], 200.79 kPa | 39.83 | – | –
[2], 210.95 kPa | 41.10 | – | –
[2], 225.32 kPa | 43.23 | – | –
[2], 240.4 kPa | 45.2 | – | –
[3], 293.15 K | – | 1.337 | –

CC(C)=O [acetone]
Settings | Boiling temperature at pressure P [°C] | mass density [kg/m3] | refractive index | vapor or sublimation pressure [kPa]
[1], 298.15 K | – | 785 | – | –
[1], 328.89 K | – | – | – | 100
[1], 341.5 K | – | – | – | 150
[1], 350.57 K | – | – | – | 200
[2], 40.32 kPa | 31.47 | – | – | –
[2], 50.34 kPa | 37.0 | – | – | –
[2], 60.36 kPa | 41.64 | – | – | –
[2], 70.3 kPa | 45.74 | – | – | –
[2], 80.32 kPa | 49.40 | – | – | –
[2], 90.34 kPa | 52.70 | – | – | –
[2], 100.38 kPa | 55.74 | – | – | –
[2], 120.34 kPa | 61.20 | – | – | –
[2], 140.53 kPa | 65.91 | – | – | –
[2], 150.68 kPa | 68.4 | – | – | –
[2], 160.33 kPa | 70.12 | – | – | –
[2], 180.53 kPa | 73.92 | – | – | –
[2], 200.55 kPa | 77.42 | – | – | –
[2], 220.29 kPa | 80.67 | – | – | –
[3], 293.15 K | – | – | 1.359 | –

CCC(=O)C(C)=O [2,3-pentanedione]
Settings | Boiling temperature at pressure P [°C] | mass density [kg/m3] | refractive index | vapor or sublimation pressure [kPa]
[1], 292.15 K | – | 982 | – | –
[1], 382.52 K | – | – | – | 100
[1], 395.74 K | – | – | – | 150
[1], 405.62 K | – | – | – | 200
[2], 15.33 kPa | 58.52 | – | – | –
[2], 30.35 kPa | 74.90 | – | – | –
[2], 45.32 kPa | 85.6 | – | – | –
[2], 50.34 kPa | 88.2 | – | – | –
[2], 60.35 kPa | 93.66 | – | – | –
[2], 65.35 kPa | 96.10 | – | – | –
[2], 75.35 kPa | 100.40 | – | – | –
[2], 90.29 kPa | 106.11 | – | – | –
[2], 100.75 kPa | 109.37 | – | – | –
[2], 105.45 kPa | 111.8 | – | – | –
[2], 120.51 kPa | 115.89 | – | – | –
[2], 135.32 kPa | 118.22 | – | – | –
[2], 150.5 kPa | 122.59 | – | – | –
[2], 165.5 kPa | 125.8 | – | – | –
[2], 180.57 kPa | 128.56 | – | – | –
[2], 195.59 kPa | 129.97 | – | – | –
[2], 200.68 kPa | 132.47 | – | – | –
[3], 292.15 K | – | – | 1.412 | –

From the NIST ThermoML archive (doi:10.1021/acs.jced.8b01196)
